Our source for the inhibition values is US20240116845A1, “INDENE COMPOUNDS, PHARMACEUTICAL COMPOSITIONS THEREOF, AND THEIR THERAPEUTIC APPLICATIONS” (NucMito Pharmaceuticals Co., Ltd., priority 2021, published 2024).

Common to all, as to format: cell-based
The subject of assay [1] is alpha-smooth muscle actin (α-SMA). In words: Inhibition of TGF-β induced expression of alpha-smooth muscle actin in CFSC cells (western blot). Conditions: compound at 10 μM, TGF-β (10 ng/mL), 24 hours. The method, boiled down: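 Read-out is percent decrease in α-SMA western-blot band intensity, β-actin also probed, relative to TGF-β-only cells. CFSC cells were co-treated for 24 h at 37 °C with 10 ng/mL TGF-β and 10 μM compound in serum-free DMEM.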

The test system of assay [2] is A431 (epidermoid carcinoma). In words: Antiproliferative activity, CCK-8 cell viability. Conditions: Homo sapiens, A-431, 72 h, read-out: Inhibition of Cancerous Cells, A431; for inhibition at 3.3 µM: compound concentration of 3.3 μM; for inhibition at 10 µM: compound concentration of 10 μM; for inhibition at 30 µM: compound concentration of 30 μM. A digest of the protocol: (§1)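 Viability relative to DMSO controls came from CCK-8 absorbance at 450 nm after 72 h exposure at 37°C. Compound concentrations were 3.3, 10 or 30 μM, in DMEM plus 10% FBS. Results are categorised by inhibition level: at least 50%, 30 to under 50%, or under 30%.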

The subject of assay [3] is A549 (lung adenocarcinoma). In words: Antiproliferative activity, CCK-8 cell viability. As to conditions: Homo sapiens, 72 h, read-out: Inhibition of Cancerous Cells, A549; for inhibition at 3.3 µM: compound concentration of 3.3 μM; for inhibition at 10 µM: compound concentration of 10 μM; for inhibition at 30 µM: compound concentration of 30 μM.
The test system of assay [4] is B16F10 (malignant melanoma). In words: Antiproliferative activity, CCK-8 cell viability. As to conditions: Mus musculus, B16-F10, 72 h, read-out: Inhibition of Cancerous Cells, B16F10; for inhibition at 3.3 µM: compound concentration of 3.3 μM; for inhibition at 10 µM: compound concentration of 10 μM; for inhibition at 30 µM: compound concentration of 30 μM. A digest of the protocol: as §1

The test system of assay [5] is HeLa (cervical cancer). In words: Antiproliferative activity, CCK-8 cell viability. Conditions: Homo sapiens, 72 h, read-out: Inhibition of Cancerous Cells, HELA; for inhibition at 3.3 µM: compound concentration of 3.3 μM; for inhibition at 10 µM: compound concentration of 10 μM; for inhibition at 30 µM: compound concentration of 30 μM.
Assay [6] deals with HepG2 (liver cancer). In words: Antiproliferative activity, CCK-8 cell viability. Conditions: Homo sapiens, 72 h, read-out: Inhibition of Cancerous Cells, HepG2; for inhibition at 3.3 µM: compound concentration of 3.3 μM; for inhibition at 10 µM: compound concentration of 10 μM; for inhibition at 30 µM: compound concentration of 30 μM. A digest of the protocol:
as §1

In assay [7] the test system is MDA-MB-231 (breast cancer). The assay is described as follows: Antiproliferative activity, CCK-8 cell viability. Conditions: Homo sapiens, 72 h, read-out: Inhibition of Cancerous Cells, MDA-MB-231; for inhibition at 3.3 µM: compound concentration of 3.3 μM; for inhibition at 10 µM: compound concentration of 10 μM; for inhibition at 30 µM: compound concentration of 30 μM. The method, boiled down:
as §1

The test system of assay [8] is SW480 (colon cancer). In words: Antiproliferative activity, CCK-8 cell viability. As to conditions: Homo sapiens, 72 h, read-out: Inhibition of Cancerous Cells, SW480; for inhibition at 3.3 µM: compound concentration of 3.3 μM; for inhibition at 10 µM: compound concentration of 10 μM; for inhibition at 30 µM: compound concentration of 30 μM. A digest of the protocol:
as §1

In the case of `COc1cccc2c1C(CC(=O)O)=C(C)/C2=C/c1ccc(Oc2ccccc2)cc1` [Compound D28, 2-[(1Z)-4-Methoxy-1-(4-(phenoxy)benzylidene)-2-methyl-1H-inden-3-yl]-acetic acid], the inhibition at 10 µM in assay [1] was 50 to 80%; in assay [2], at least 50%; in assay [3], 30 to 50%; in assay [4], at least 50%; in assay [5], below 30%; in assay [6], at least 50%. Moreover, the inhibition at 10 µM in assay [7] was 30 to 50%; in assay [8], at least 50%. The inhibition at 3.3 µM is at least 50% in assay [2]; 30 to 50% in assay [3]; 30 to 50% in assay [4]; below 30% in assay [5]; at least 50% in assay [6]; 30 to 50% in assay [7]. For the same compound, the inhibition at 3.3 µM in assay [8] was at least 50%. The inhibition at 30 µM was at least 50% in assay [2]; at least 50% in assay [3]; at least 50% in assay [4]; below 30% in assay [5]; at least 50% in assay [6]; at least 50% in assay [7]. In assay [8], the inhibition at 30 µM is at least 50%.

For `O=C(O)CC1=C/C(=C/c2ccc(Oc3ccc(F)cc3)cc2)c2ccc(F)cc21` [Compound D33, 2-[(1Z)-5-Fluoro-1-{[4-(4-fluorophenoxy)phenyl]methylidene}-1H-inden-3-yl]acetic acid], the inhibition at 10 µM in assay [1] was below 30%; in assay [2], 30 to 50%; in assay [3] it was 30 to 50%; in assay [4], at least 50%; in assay [5], below 30%; in assay [6] it was at least 50%. In addition, the inhibition at 10 µM in assay [7] and in assay [8] was at least 50% each time. The inhibition at 3.3 µM was below 30% in assay [2]; 30 to 50% in assay [3]; 30 to 50% in assay [4]; 30 to 50% in assay [5]; at least 50% in assay [6]; at least 50% in assay [7]. In assay [8], the inhibition at 3.3 µM fell in the range of 30 to 50%. Moreover, the inhibition at 30 µM in assay [2], in assay [3], in assay [4], in assay [5], in assay [6] and in assay [7] was at least 50% in each case. In addition, the inhibition at 30 µM in assay [8] is at least 50%.

Consider `CC1=C(CC(=O)NO)c2cc(F)ccc2/C1=C\c1ccc(C(C)(C)C)cc1` [Compound D42, (Z)-2-(1-(4-(Tert-butyl)benzylidene)-5-fluoro-2-methyl-1H-inden-3-yl)-N-hydroxyacetamide], for which the inhibition at 10 µM in assay [1] was 50 to 80%; in assay [2] it was at least 50%; in assay [3] it was at least 50%; in assay [4] it was at least 50%; in assay [5], at least 50%; in assay [6] it was 30 to 50%. Besides, the inhibition at 10 µM in assay [7] and in assay [8] was at least 50% each time. The inhibition at 3.3 µM in assay [2] was at least 50%; in assay [3] it was at least 50%; in assay [4], at least 50%; in assay [5], 30 to 50%; in assay [6], below 30%; in assay [7], at least 50%. The inhibition at 3.3 µM in assay [8] was at least 50%. Besides, the inhibition at 30 µM in assay [2], in assay [3], in assay [4], in assay [5], in assay [6] and in assay [7] was at least 50% throughout. The inhibition at 30 µM in assay [8] is at least 50%.
